Columns and labels:
[1] = target: T1, GPR4 (Homo sapiens, UniProt P46093); test: Radioligand binding to homogenates of GPR4-transfected CHO cells; details: GPR4-transfected CHO cell homogenates; for maximum binding capacity / Kd: 4° C.; for Kd: Scatchard analysis, [3H]SPC or [3H]16:0-LPC, read-out: dissociation constant (Kd); for competition for binding of [3H]SPC and [3H]16:0-LPC to GPR4: cold competitors
T1 construct: were used to generate full length GPR4, which was digested with EcoRI and Xba I and cloned into the pBs3HA vector; expressed in transfected cells
T1 sequence (P46093 whole entry): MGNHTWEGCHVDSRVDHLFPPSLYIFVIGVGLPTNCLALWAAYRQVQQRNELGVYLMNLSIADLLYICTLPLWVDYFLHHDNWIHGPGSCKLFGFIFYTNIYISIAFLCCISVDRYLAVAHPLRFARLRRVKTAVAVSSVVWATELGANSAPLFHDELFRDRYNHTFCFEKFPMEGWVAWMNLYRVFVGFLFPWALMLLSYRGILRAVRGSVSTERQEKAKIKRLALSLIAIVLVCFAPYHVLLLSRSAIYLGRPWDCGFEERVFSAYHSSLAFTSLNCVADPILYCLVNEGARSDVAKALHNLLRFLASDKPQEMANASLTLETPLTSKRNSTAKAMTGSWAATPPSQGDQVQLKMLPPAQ
Experimental: (§1) To characterize the binding of SPC and LPC to GPR4 and TDAG8, we conducted radioligand binding assays. CHO cells were chosen for GPR4 binding assays, since HEK293 cells express relatively high levels of endogenous GPR4. CHO cells stably transfected with empty vector or GPR4 were serum starved for 20 h, then collected after exposure to 2 mM EDTA in PBS. The pelleted cells were stored at −80° C. until use. Binding assays were performed essentially as described previously (Xu et al. (2000) Nat Cell Biol 2, 261-267), except binding was performed at 4° C. Briefly, frozen cells (10^6 cells/ml) were homogenized in a binding buffer. Assays were performed in 96-well plates in triplicate with 100 μl cell homogenate (equivalent to 10^5 cells/well). Different amounts of [^3H]SPC or [^3H]16:0-LPC were added to the cell homogenates in 50 μl of binding buffer, in the presence or absence of cold SPC or 16:0-LPC, or other competitors. The plates were incubated at 4° C. for 120 min, unless otherwise indicated. Cell-bound [^3H]SPC or [^3H]LPC was collected onto a filter (Printed Filtermat A, Wallac, Gaithersburg, Md.) using an automated cell harvester (HARVESTER 96, Tomtec, Orange, Conn.). Specific binding was calculated by subtraction of nonspecific binding (binding detected in the presence of 100-fold excess unlabeled SPC or 16:0-LPC) from the total binding.
Cell homogenates were used for binding assays. Binding was conducted at 4° C. for 120 min or as indicated. [^3H]SPC and [^3H]16:0-LPC specifically bound to cell homogenates from GPR4-transfected CHO cells in a time-dependent manner and reached equilibrium after 60 min incubation at 4° C. […] The maximum binding capacities for SPC and 16:0-LPC were 996 fmole/10^5 cells for SPC and 1,528 fmole/10^5 cells for 16:0-LPC. […] Binding assays using [^3H]18:0-LPC gave similar results. We also tested the four glycosphingolipids, Psy, Glu-Sph, Gal-Cer, and Lac-Cer, for their ability to compete for the binding of [^3H]SPC and [^3H]16:0-LPC to GPR4.

[2] = target: T2, OGR1 (Homo sapiens, UniProt Q15743); test: MAP kinase reporter system in OGR1 co-transfected cells; type: cell-based
T2 construct: expressed in transfected cells
T2 sequence (Q15743 whole entry, species assumed): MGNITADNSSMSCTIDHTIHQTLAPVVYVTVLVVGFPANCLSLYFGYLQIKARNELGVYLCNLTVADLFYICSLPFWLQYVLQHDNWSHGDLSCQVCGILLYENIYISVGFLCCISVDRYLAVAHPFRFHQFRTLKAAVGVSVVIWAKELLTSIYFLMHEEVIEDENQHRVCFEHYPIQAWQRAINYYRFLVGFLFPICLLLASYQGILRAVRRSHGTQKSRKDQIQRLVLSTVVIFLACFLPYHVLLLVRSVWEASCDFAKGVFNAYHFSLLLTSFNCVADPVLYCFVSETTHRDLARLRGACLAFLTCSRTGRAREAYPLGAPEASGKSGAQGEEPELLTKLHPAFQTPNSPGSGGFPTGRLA

[3] = target: T3, TDAG8 (Homo sapiens, UniProt Q8IYL9); test: Binding of phospholipids to TDAG8
T3 construct: expressed in transfected cells
T3 sequence (Q8IYL9 whole entry): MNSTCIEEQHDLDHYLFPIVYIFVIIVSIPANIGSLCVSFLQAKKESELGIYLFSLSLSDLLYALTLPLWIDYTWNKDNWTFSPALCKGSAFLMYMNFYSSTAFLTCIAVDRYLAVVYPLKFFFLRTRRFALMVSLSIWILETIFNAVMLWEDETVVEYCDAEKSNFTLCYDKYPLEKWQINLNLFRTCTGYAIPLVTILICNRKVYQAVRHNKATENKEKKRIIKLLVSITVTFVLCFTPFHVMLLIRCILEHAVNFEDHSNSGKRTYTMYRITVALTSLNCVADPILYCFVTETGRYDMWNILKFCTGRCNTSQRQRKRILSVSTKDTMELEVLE
Experimental: as §1
Using functional and binding assays, we have identified the ligands for TDAG8.

[4] = target: T1, GPR4; test: SRE luciferase reporter in GPR4-transfected HEK293 cells; type: cell-based; details: GPR4-transfected HEK293 cells; for EC50: read-out: EC50 for the activation of SRE; for activation of SRE reporter: lipid 1 μM
How it was run: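 HEK293 cells, vector-, GPR4- or TDAG8-transfected, co-transfected with pSRE-Luc, serum-starved 16 h, then given SPC or other lipids in serum-free RPMI 1640 for 10 h before luciferase readout from lysates. Where used, PTX (100 ng/ml) added during starvation; C3-exoenzyme plasmid co-transfected. Quadruplicates, Student's t test, p<0.05.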

[5] = target: T1, GPR4; test: Single-cell intracellular calcium assay (fura-2) in GPR4-GFP-transfected MCF10A cells; type: cell-based; details: for EC50: GPR4-transfected MCF10A cells, 1 mM EGTA, read-out: EC50 of calcium mobilization; for block of the lipid-induced increase in [Ca2+]i by BSA: lipid 1 μM preincubated with 0.5% fatty acid-free BSA, lipid:BSA approximately 1:75; for increase in [Ca2+]i in GPR4- vs vector-transfected/parental MCF10A cells: lipid at 1 μM
Experimental: Measurement of [Ca^2+]i, was performed as described previously in Xu et al. (2000) Nat Cell Biol 2, 261-267. Briefly, pGPR4-GFP-transfected MCF10A cells were grown in specialized glass-bottom dishes (Bioptech, Inc., Butler, Pa.) and loaded with fura-2 in HEPES buffered saline. Using a dual-wavelength spectrofluorometer (RFK-6002, Photon Technology Int'l, So. Brunswick, N.J.) coupled to an inverted fluorescence microscope (Olympus, IX-70, Lake Success, N.Y.), GFP-positive cells were identified using an excitation wavelength of 488 nm, a dichroic 505 nm long-pass filter and an emitter filter at bandpass of 535 nm (Chroma Technology, Brattleboro, Vt.). Measurements of [Ca^2+]i were performed on individual GPR4-GFP positive cells at excitation wavelengths of 340 and 380 nm and an emission wavelength of 510 nm. Conversion of the 340/380 ratio value into [Ca^2+]i in nM was estimated by comparing the cellular fluorescence ratio with ratios acquired using fura-2 (free acid) in buffers containing known Ca^2+ concentrations. [Ca^2+]i was then calculated as described by Grynkiewicz et al. (1985) J Biol Chem 260, 3440-3450. All calcium assays were performed in the presence of 1 mM EGTA in the assay buffers. Therefore, intracellular calcium release, not calcium influx, was analyzed.
To test whether GPR4 is a receptor for SPC, MCF10A cells were transiently transfected with pGPR4-GFP.
The GFP receptor fusion was used to identify positively transfected cells, and single-cell calcium assays were performed as described in our previous studies, such as Xu et al. (2000) Nat Cell Biol 2, 261-267.

Compound | maximum binding capacity [1] | Kd [1] [nM] | competition for binding of [3H]SPC and [3H]16:0-LPC to GPR4 [1] | MAP kinase activation (reporter) [2] | binding to TDAG8 [3] | EC50 [4] [nM] | activation of SRE reporter [4] [fold] | EC50 [5] [nM] | block of the lipid-induced increase in [Ca2+]i by BSA [5] | increase in [Ca2+]i in GPR4- vs vector-transfected/parental MCF10A cells [5]
CCCCCCCCCCCCC/C=C/[C@@H](O)[C@@H](N)COP(=O)([O-])OCC[N+](C)(C)C [SPC, Sphingosylphosphorylcholine] | 996 fmole/10^5 cells | 36 | successfully competed for binding | only achieved by SPC | able to bind to TDAG8 | 63 | 4 | 105 | more than 50% | stimulated an increase in [Ca^2+]i in GPR4-, but not vector-transfected MCF10A cells
CCCCCCCCCCCCCCCC(=O)OC[C@@H](O)COP(=O)([O-])OCC[N+](C)(C)C [16:0-LPC] | 1,528 fmole/10^5 cells | 159 | successfully competed for binding | – | – | 160 | 3.1 | – | – | stimulated to produce increased [Ca^2+]i
lysophosphatidylcholine [LPC] | – | 159 | – | weakly inhibitory | able to bind to TDAG8 | – | – | 1100 | > 95% | –

— patent publication US20020107197A1, “Ligands for G protein coupled receptors and methods of using them” (priority 2000, published 2002)
